Data taken from paper PMC2903208 (Organic letters, 2010).

Target: T1, mCD1d (Mus musculus, UniProt P11609)
T1 sequence (P11609 22-305 limits assumed): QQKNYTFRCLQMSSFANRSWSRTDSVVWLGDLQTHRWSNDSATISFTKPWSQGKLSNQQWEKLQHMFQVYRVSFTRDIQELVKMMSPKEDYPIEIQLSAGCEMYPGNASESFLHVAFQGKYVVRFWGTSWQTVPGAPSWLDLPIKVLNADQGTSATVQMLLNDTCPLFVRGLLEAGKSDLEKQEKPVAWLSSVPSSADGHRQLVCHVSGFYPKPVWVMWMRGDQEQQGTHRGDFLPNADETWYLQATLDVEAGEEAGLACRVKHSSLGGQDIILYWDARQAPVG
T1 sequence (P01887 21-119 partner): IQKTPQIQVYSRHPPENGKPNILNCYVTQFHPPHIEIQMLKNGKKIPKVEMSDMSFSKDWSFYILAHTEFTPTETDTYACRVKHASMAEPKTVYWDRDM
Experiment: SPR of soluble TCR binding to glycolipid-loaded mCD1d

CCCCCCCCCCCCCCCCCCCCCCCCCC(=O)N[C@@H](CO[C@H]1O[C@H](CO)[C@H](O)[C@H](O)[C@H]1O)[C@H](O)[C@H](O)CCCCCCCCCCCCCC [compound 1, α-GalCer]
Kd: 12.8 nM
